# Tested on: 857933-349-R-J2-PDC complex spheroid viability
# Experiment: Anticancer human tumor 857933-349-R-J2-PDC patient-derived colon adenocarcinoma cell line growth inhibition [POLQ]
# Conditions: for IC50: curve of first compound; for viability, T/C: stronger effect = lower value
# Outline: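 PDC + HUVEC + MSC complex spheroids; POLQ inhibitors ± partner drugs; top conc. at/near clinical Cmax, else 10 microM (SN-38 1 microM), half-log dilutions; 37 degrees C, 5% CO2.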
# [1] = second compound 0.0316 µM, first compound 0.0316 µM
# [2] = second compound 0.0316 µM, first compound 0.1 µM
# [3] = second compound 0.0316 µM, first compound 0.316 µM
# [4] = second compound 0.0316 µM, first compound 1 µM
# [5] = second compound 0.1 µM, first compound 0.0316 µM
# [6] = second compound 0.1 µM, first compound 0.1 µM
# [7] = second compound 0.1 µM, first compound 0.316 µM
# [8] = second compound 0.1 µM, first compound 1 µM
# [9] = second compound 0.316 µM, first compound 0.0316 µM
# [10] = second compound 0.316 µM, first compound 0.1 µM
# [11] = second compound 0.316 µM, first compound 0.316 µM
# [12] = second compound 0.316 µM, first compound 1 µM
# [13] = second compound 1 µM, first compound 0.0316 µM
# [14] = second compound 1 µM, first compound 0.1 µM
# [15] = second compound 1 µM, first compound 0.316 µM
# [16] = second compound 1 µM, first compound 1 µM
# [17] = second compound 3.16 µM, first compound 0.0316 µM
# [18] = second compound 3.16 µM, first compound 0.1 µM
# [19] = second compound 3.16 µM, first compound 0.316 µM
# [20] = second compound 3.16 µM, first compound 1 µM
# [21] = second compound 10 µM, first compound 0.0316 µM
# [22] = second compound 10 µM, first compound 0.1 µM
# [23] = second compound 10 µM, first compound 0.316 µM
# [24] = second compound 10 µM, first compound 1 µM
# [25] = second compound 0.0316 µM, first compound 0.00316 µM
# [26] = second compound 0.0316 µM, first compound 0.01 µM
# [27] = second compound 0.1 µM, first compound 0.00316 µM
# [28] = second compound 0.1 µM, first compound 0.01 µM
# [29] = second compound 0.316 µM, first compound 0.00316 µM
# [30] = second compound 0.316 µM, first compound 0.01 µM
# [31] = second compound 1 µM, first compound 0.00316 µM
# [32] = second compound 1 µM, first compound 0.01 µM
# [33] = second compound 3.16 µM, first compound 0.00316 µM
# [34] = second compound 3.16 µM, first compound 0.01 µM
# [35] = second compound 10 µM, first compound 0.00316 µM
# [36] = second compound 10 µM, first compound 0.01 µM
# 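Further: spheroids exposed to compounds for seven days before readout.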
smiles,measurement,setting,value
CC1COCCN1c1cc(-c2ccnn2C)c2ccnc(-c3ccn[nH]3)c2n1 (stereo unspecified) + Nc1ccc(C#CCN(C(=O)Cc2ncc(C(F)(F)F)cc2C(F)(F)F)c2ccc(F)cc2)nn1,IC50,second compound 0.0316 µM,812 nM
same,IC50,second compound 0.1 µM,495 nM
same,IC50,second compound 0.316 µM,739 nM
same,IC50,second compound 1 µM,445 nM
same,IC50,second compound 3.16 µM,272 nM
same,IC50,second compound 10 µM,648 nM
same,"viability, T/C",[1],76.4%
same,"viability, T/C",[2],65.6%
same,"viability, T/C",[3],62.1%
same,"viability, T/C",[4],50.3%
same,"viability, T/C","second compound 0.0316 µM, first compound 3.16 µM",32.5%
same,"viability, T/C","second compound 0.0316 µM, first compound 10 µM",43.8%
same,"viability, T/C",[5],71.5%
same,"viability, T/C",[6],65.3%
same,"viability, T/C",[7],53%
same,"viability, T/C",[8],47.9%
same,"viability, T/C","second compound 0.1 µM, first compound 3.16 µM",30.9%
same,"viability, T/C","second compound 0.1 µM, first compound 10 µM",42.8%
same,"viability, T/C",[9],81.1%
same,"viability, T/C",[10],78.5%
same,"viability, T/C",[11],56.2%
same,"viability, T/C",[12],51.4%
same,"viability, T/C","second compound 0.316 µM, first compound 3.16 µM",37.3%
same,"viability, T/C","second compound 0.316 µM, first compound 10 µM",41.3%
same,"viability, T/C",[13],74.9%
same,"viability, T/C",[14],61.9%
same,"viability, T/C",[15],51.5%
same,"viability, T/C",[16],49%
same,"viability, T/C","second compound 1 µM, first compound 3.16 µM",36.9%
same,"viability, T/C","second compound 1 µM, first compound 10 µM",45.6%
same,"viability, T/C",[17],76.4%
same,"viability, T/C",[18],68.2%
same,"viability, T/C",[19],47.4%
same,"viability, T/C",[20],42.9%
same,"viability, T/C","second compound 3.16 µM, first compound 3.16 µM",42.8%
same,"viability, T/C","second compound 3.16 µM, first compound 10 µM",46.7%
same,"viability, T/C",[21],78.2%
same,"viability, T/C",[22],62.1%
same,"viability, T/C",[23],54.8%
same,"viability, T/C",[24],45.3%
same,"viability, T/C","second compound 10 µM, first compound 3.16 µM",47.2%
same,"viability, T/C","second compound 10 µM, first compound 10 µM",45.5%
CCc1c2c(nc3ccc(O)cc13)-c1cc3c(c(=O)n1C2)COC(=O)[C@]3(O)CC + Cc1cccc(N(C)C(=O)C2C(O)CCN2c2nc(C)cc(C(F)(F)F)c2C#N)c1,IC50,second compound 0.0316 µM,21.5 nM
same,IC50,second compound 0.1 µM,16.7 nM
same,IC50,second compound 0.316 µM,14 nM
same,IC50,second compound 1 µM,15.6 nM
same,IC50,second compound 3.16 µM,13.4 nM
same,IC50,second compound 10 µM,13.6 nM
same,"viability, T/C",[25],75%
same,"viability, T/C",[26],78.5%
same,"viability, T/C",[1],36.5%
same,"viability, T/C",[2],20%
same,"viability, T/C",[3],16.1%
same,"viability, T/C",[4],5.22%
same,"viability, T/C",[27],70.1%
same,"viability, T/C",[28],68.6%
same,"viability, T/C",[5],27.4%
same,"viability, T/C",[6],17.7%
same,"viability, T/C",[7],13.2%
same,"viability, T/C",[8],3.51%
same,"viability, T/C",[29],67%
same,"viability, T/C",[30],59.5%
same,"viability, T/C",[9],32%
same,"viability, T/C",[10],20.2%
same,"viability, T/C",[11],15%
same,"viability, T/C",[12],4.16%
same,"viability, T/C",[31],73.9%
same,"viability, T/C",[32],62.5%
same,"viability, T/C",[13],30.8%
same,"viability, T/C",[14],19.8%
same,"viability, T/C",[15],14.1%
same,"viability, T/C",[16],5.21%
same,"viability, T/C",[33],72.9%
same,"viability, T/C",[34],59.6%
same,"viability, T/C",[17],23.5%
same,"viability, T/C",[18],19.1%
same,"viability, T/C",[19],12.3%
same,"viability, T/C",[20],4.25%
same,"viability, T/C",[35],65.1%
same,"viability, T/C",[36],60.2%
same,"viability, T/C",[21],22.4%
same,"viability, T/C",[22],17.7%
same,"viability, T/C",[23],17.1%
same,"viability, T/C",[24],2.64%
CCc1c2c(nc3ccc(O)cc13)-c1cc3c(c(=O)n1C2)COC(=O)[C@]3(O)CC + Nc1ccc(C#CCN(C(=O)Cc2ncc(C(F)(F)F)cc2C(F)(F)F)c2ccc(F)cc2)nn1,IC50,second compound 0.0316 µM,14.9 nM
same,IC50,second compound 0.1 µM,13.6 nM
same,IC50,second compound 0.316 µM,10.9 nM
same,IC50,second compound 1 µM,12.7 nM
same,IC50,second compound 3.16 µM,13.2 nM
same,IC50,second compound 10 µM,12.7 nM
same,"viability, T/C",[25],65.4%
same,"viability, T/C",[26],63.6%
same,"viability, T/C",[1],27.2%
same,"viability, T/C",[2],18.6%
same,"viability, T/C",[3],10.8%
same,"viability, T/C",[4],2.67%
same,"viability, T/C",[27],64.9%
same,"viability, T/C",[28],60.5%
same,"viability, T/C",[5],23.2%
same,"viability, T/C",[6],14.3%
same,"viability, T/C",[7],9.81%
same,"viability, T/C",[8],2.89%
same,"viability, T/C",[29],68%
same,"viability, T/C",[30],53.6%
same,"viability, T/C",[9],21.7%
same,"viability, T/C",[10],14.7%
same,"viability, T/C",[11],9.84%
same,"viability, T/C",[12],1.82%
same,"viability, T/C",[31],68.1%
same,"viability, T/C",[32],58.1%
same,"viability, T/C",[13],24.9%
same,"viability, T/C",[14],15.6%
same,"viability, T/C",[15],8.49%
same,"viability, T/C",[16],2.23%
same,"viability, T/C",[33],66.2%
same,"viability, T/C",[34],58.9%
same,"viability, T/C",[17],27.4%
same,"viability, T/C",[18],17.6%
same,"viability, T/C",[19],12.5%
same,"viability, T/C",[20],3.21%
same,"viability, T/C",[35],70.2%
same,"viability, T/C",[36],57.9%
same,"viability, T/C",[21],25.9%
same,"viability, T/C",[22],20.9%
same,"viability, T/C",[23],12.7%
same,"viability, T/C",[24],5.79%

# — PubChem BioAssay AID1963836 (Molecular Pharmacology Branch, DTP, NCI, 2024)
